Key:
Experiment in all cases: relative viability (nuclei count vs DMSO), 5 days (fraction); higher = more cells survive
HOP-62 = system: HOP-62
Summary of the method: (§1)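 Lung cancer cell lines were seeded in 1536-well plates and dosed by pin tool the next day, with either a single drug or a fixed anchor-drug dose combined with five library-drug doses (not always all listed) spaced in √10 steps. Five days later, one step fixed the cells and stained their nuclei (final 0.05% Triton X-100, 1% formaldehyde, 1 ug/ml Hoechst), and nuclei were counted on 4× images. Relative viability is the nuclei count in treated wells divided by the count in vehicle wells, and each value is the median of duplicate plates.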

H3255 = system: H3255
Summary of the method: as §1

NCI-H2009 = system: NCI-H2009
Summary of the method: as §1

NCI-H727 = system: NCI-H727
Summary of the method: as §1

NCI-H2347 = system: NCI-H2347
Summary of the method: as §1

NCI-H1734 = system: NCI-H1734
Summary of the method: as §1

NCI-H647 = system: NCI-H647
Summary of the method: as §1

PC-14 = system: PC-14
Summary of the method: as §1

NCI-H2126 = system: NCI-H2126
Summary of the method: as §1

LCLC-97TM1 = system: LCLC-97TM1
Summary of the method: as §1

NCI-H1993 = system: NCI-H1993
Summary of the method: as §1

NCI-H1563 = system: NCI-H1563
Summary of the method: as §1

NCI-H661 = system: NCI-H661
Summary of the method: as §1

SK-LU-1 = system: SK-LU-1
Summary of the method: as §1

NCI-H2023 = system: NCI-H2023
Summary of the method: as §1

NCI-H1915 = system: NCI-H1915
Summary of the method: as §1

SW 1573 = system: SW 1573
Summary of the method: as §1

NCI-H322M = system: NCI-H322M
Summary of the method: as §1

EPLC-272H = system: EPLC-272H
Summary of the method: as §1

NCI-H2085 = system: NCI-H2085
Summary of the method: as §1

LXF-289 = system: LXF-289
Summary of the method: as §1

EMC-BAC-2 = system: EMC-BAC-2
Summary of the method: as §1

CC(=O)O[C@@]12CO[C@@H]1C[C@H](O)[C@@]1(C)C(=O)[C@H](O)C3=C(C)[C@@H](OC(=O)[C@H](O)[C@@H](NC(=O)OC(C)(C)C)c4ccccc4)C[C@@](O)([C@@H](OC(=O)c4ccccc4)[C@H]21)C3(C)C [Docetaxel] + COc1cccc2cc(-c3nc([C@H]4CC[C@H](C(=O)O)CC4)n4ncnc(N)c34)[nH]c12 [OSI-027] (partner 0.5 µM)
relative viability (HOP-62; first compound 0.0002 µM): 0.835 | relative viability (HOP-62; first compound 0.000632 µM): 0.631 | relative viability (HOP-62; first compound 0.002 µM): 0.369 | relative viability (H3255; first compound 0.0002 µM): 0.66 | relative viability (H3255; first compound 0.000632 µM): 0.67 | relative viability (H3255; first compound 0.002 µM): 0.51 | relative viability (H3255; first compound 0.006325 µM): 0.369 | relative viability (H3255; first compound 0.02 µM): 0.277 | relative viability (NCI-H2009; first compound 0.0002 µM): 0.618 | relative viability (NCI-H2009; first compound 0.000632 µM): 0.66 | relative viability (NCI-H2009; first compound 0.002 µM): 0.491 | relative viability (NCI-H2009; first compound 0.006325 µM): 0.231 | relative viability (NCI-H2009; first compound 0.02 µM): 0.134 | relative viability (NCI-H727; first compound 0.0002 µM): 0.804 | relative viability (NCI-H727; first compound 0.000632 µM): 0.615 | relative viability (NCI-H727; first compound 0.002 µM): 0.415 | relative viability (NCI-H727; first compound 0.006325 µM): 0.544 | relative viability (NCI-H727; first compound 0.02 µM): 0.361 | relative viability (NCI-H2347; first compound 0.0002 µM): 0.435 | relative viability (NCI-H2347; first compound 0.000632 µM): 0.382 | relative viability (NCI-H2347; first compound 0.002 µM): 0.329 | relative viability (NCI-H2347; first compound 0.006325 µM): 0.282 | relative viability (NCI-H2347; first compound 0.02 µM): 0.249 | relative viability (NCI-H1734; first compound 0.0002 µM): 0.573 | relative viability (NCI-H1734; first compound 0.000632 µM): 0.482 | relative viability (NCI-H1734; first compound 0.002 µM): 0.307 | relative viability (NCI-H1734; first compound 0.006325 µM): 0.35 | relative viability (NCI-H1734; first compound 0.02 µM): 0.242 | relative viability (NCI-H647; first compound 0.0002 µM): 0.524 | relative viability (NCI-H647; first compound 0.000632 µM): 0.432 | relative viability (NCI-H647; first compound 0.002 µM): 0.229 | relative viability (NCI-H647; first compound 0.006325 µM): 0.0929 | relative viability (NCI-H647; first compound 0.02 µM): 0.0717 | relative viability (PC-14; first compound 0.0002 µM): 0.759 | relative viability (PC-14; first compound 0.000632 µM): 0.549 | relative viability (PC-14; first compound 0.002 µM): 0.121 | relative viability (PC-14; first compound 0.006325 µM): 0.0548 | relative viability (PC-14; first compound 0.02 µM): 0.0206 | relative viability (NCI-H2126; first compound 0.0002 µM): 0.742 | relative viability (NCI-H2126; first compound 0.000632 µM): 0.622 | relative viability (NCI-H2126; first compound 0.002 µM): 0.281 | relative viability (NCI-H2126; first compound 0.006325 µM): 0.297 | relative viability (NCI-H2126; first compound 0.02 µM): 0.221 | relative viability (LCLC-97TM1; first compound 0.0002 µM): 0.696 | relative viability (LCLC-97TM1; first compound 0.000632 µM): 0.603 | relative viability (LCLC-97TM1; first compound 0.002 µM): 0.352 | relative viability (LCLC-97TM1; first compound 0.006325 µM): 0.182 | relative viability (LCLC-97TM1; first compound 0.02 µM): 0.118 | relative viability (NCI-H1993; first compound 0.0002 µM): 0.556 | relative viability (NCI-H1993; first compound 0.000632 µM): 0.616 | relative viability (NCI-H1993; first compound 0.002 µM): 0.6 | relative viability (NCI-H1993; first compound 0.006325 µM): 0.501 | relative viability (NCI-H1993; first compound 0.02 µM): 0.414 | relative viability (NCI-H1563; first compound 0.0002 µM): 0.715 | relative viability (NCI-H1563; first compound 0.000632 µM): 0.79 | relative viability (NCI-H1563; first compound 0.002 µM): 0.738 | relative viability (NCI-H1563; first compound 0.006325 µM): 0.699 | relative viability (NCI-H1563; first compound 0.02 µM): 0.541 | relative viability (NCI-H661; first compound 0.0002 µM): 0.694 | relative viability (NCI-H661; first compound 0.000632 µM): 0.727 | relative viability (NCI-H661; first compound 0.002 µM): 0.521 | relative viability (NCI-H661; first compound 0.006325 µM): 0.29 | relative viability (NCI-H661; first compound 0.02 µM): 0.307 | relative viability (SK-LU-1; first compound 0.0002 µM): 0.353 | relative viability (SK-LU-1; first compound 0.000632 µM): 0.26 | relative viability (SK-LU-1; first compound 0.002 µM): 0.228 | relative viability (SK-LU-1; first compound 0.006325 µM): 0.197 | relative viability (SK-LU-1; first compound 0.02 µM): 0.144 | relative viability (NCI-H2023; first compound 0.0002 µM): 0.341 | relative viability (NCI-H2023; first compound 0.000632 µM): 0.339 | relative viability (NCI-H2023; first compound 0.002 µM): 0.131 | relative viability (NCI-H2023; first compound 0.006325 µM): 0.0963 | relative viability (NCI-H2023; first compound 0.02 µM): 0.0554 | relative viability (NCI-H1915; first compound 0.0002 µM): 0.603 | relative viability (NCI-H1915; first compound 0.000632 µM): 0.505 | relative viability (NCI-H1915; first compound 0.006325 µM): 0.224 | relative viability (NCI-H1915; first compound 0.02 µM): 0.14 | relative viability (SW 1573; first compound 0.0002 µM): 0.677 | relative viability (SW 1573; first compound 0.000632 µM): 0.326 | relative viability (SW 1573; first compound 0.002 µM): 0.199 | relative viability (SW 1573; first compound 0.02 µM): 0.124 | relative viability (NCI-H322M; first compound 0.0002 µM): 0.531 | relative viability (NCI-H322M; first compound 0.000632 µM): 0.532 | relative viability (NCI-H322M; first compound 0.002 µM): 0.471 | relative viability (NCI-H322M; first compound 0.006325 µM): 0.383 | relative viability (NCI-H322M; first compound 0.02 µM): 0.279 | relative viability (EPLC-272H; first compound 0.0002 µM): 0.258 | relative viability (EPLC-272H; first compound 0.000632 µM): 0.235 | relative viability (EPLC-272H; first compound 0.002 µM): 0.228 | relative viability (EPLC-272H; first compound 0.006325 µM): 0.159 | relative viability (EPLC-272H; first compound 0.02 µM): 0.124 | relative viability (NCI-H2085; first compound 0.0002 µM): 0.718 | relative viability (NCI-H2085; first compound 0.000632 µM): 0.706 | relative viability (NCI-H2085; first compound 0.002 µM): 0.433 | relative viability (NCI-H2085; first compound 0.006325 µM): 0.316 | relative viability (NCI-H2085; first compound 0.02 µM): 0.272 | relative viability (LXF-289; first compound 0.0002 µM): 0.819 | relative viability (LXF-289; first compound 0.000632 µM): 0.652 | relative viability (LXF-289; first compound 0.006325 µM): 0.117 | relative viability (LXF-289; first compound 0.02 µM): 0.067 | relative viability (EMC-BAC-2; first compound 0.0002 µM): 0.424 | relative viability (EMC-BAC-2; first compound 0.000632 µM): 0.327 | relative viability (EMC-BAC-2; first compound 0.002 µM): 0.257 | relative viability (EMC-BAC-2; first compound 0.006325 µM): 0.25 | relative viability (EMC-BAC-2; first compound 0.02 µM): 0.172
